For data set [1], the system named is Apis mellifera. As to conditions: acute, duration: 48 hours, mortality.
Data set [2] deals with Folsomia candida. The note with it: chronic/long-term; duration: 28 days.
For data set [3], the system named is Canidae. The note with it: oral, Dog Other.
Data set [4] deals with Oncorhynchus mykiss.
The subject of data set [5] is Tagia sp. The note with it: acute; mortality.
The test system of data set [6] is Neomysis kadiakensis.
For data set [7], the system named is Rattus norvegicus.
The subject of data set [8] is Anas platyrhynchos. As to conditions: reproductive, duration: 5 days, oral, feed.
Data set [9] has as its system Colinus virginianus. The note with it: oral, diet.
Data set [10] has as its system Pontoscolex corethrurus. As to conditions: chronic/long-term; reproduction.
Data set [11] deals with Gammarus pulex. The note with it: chronic/long-term; duration: 28 days.
The subject of data set [12] is Daphnia magna. As to conditions: chronic/long-term; duration: 21 days.
The subject of data set [13] is Typhlodromus pyri. The data set can be described thus: LR50; higher = less toxic. The note with it: not reported; mortality.
The subject of data set [14] is Aphidius rhopalosiphi. In words: LR50; higher = less toxic. As to conditions: not reported; mortality.
Setting [15] is: acute, duration: 96 hours, mortality.

The structures appear in SMILES notation. Converted amounts (≈) assume the structure as drawn.

One may read the NOAEL as the highest tested level that showed no adverse finding. On to `CO/N=C(/C1=NOCCO1)c1ccccc1Oc1ncnc(Oc2ccccc2Cl)c1F` [Fluoxastrobin], for which the LD50 in data set [1] (dermal) was more than 200 µg/piece; in data set [1] (oral, unspecified) it was more than 843 µg/piece; in [7] (acute, oral, mortality) it was more than 2000 mg/kg. Further, the NOEC in [2] was found to be 5 mg/kg; in data set [4] (chronic/long-term, duration: 95 days, other), 0.0286 mg/L; in data set [6] (chronic/long-term, duration: 28 days), 0.00061 mg/L; in data set [8], 285 mg/kg-day; in [9] (reproduction developmental, duration: 5 days), 151 mg/kg-day; in [11] it was 0.0316 mg/L. Besides, the NOEC in data set [12] came to 0.18 mg/L. For the same compound, the NOAEL is 3 mg/kg-day in data set [3] (chronic, duration: 1 years, clinical chemistry); 30 mg/kg-day in data set [3] (subchronic, duration: 90 days, body weight); 3 mg/kg-day in data set [3] (subchronic, duration: 90 days, clinical chemistry); more than 742 mg/kg-day in [7] (developmental, development). In addition, the LC50 in [4] (setting [15]) is 0.435 µg/mL (≈ 0.948 µM); in [5], more than 500 mg/kg; in data set [6] (setting [15]), 0.0604 µg/mL (≈ 0.132 µM); in data set [8] (mortality) it was more than 2190 mg/kg-day; in data set [9] (acute, duration: 5 days, mortality) it was more than 966 mg/kg-day. For the same compound, the NOEL in data set [9] (short-term, mortality) was determined as 2000 mg/kg-day; in data set [10], 1.33 mg/kg. Besides, the values for the LR50 in data set [13] and in [14] were 122 g/ha and 34.1 g/ha, respectively.

The values above are taken from EPA's ToxValDB 9.5 (doi:10.2903/j.efsa.2005.102r).
